This note sets out measurements from PubChem BioAssay AID588580 (Sanford-Burnham Center for Chemical Genomics, 2011).

Molecules are shown by their SMILES. Calls of active or inactive are those of the source.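 Rule for the calls: active = mean EC50 of 20 µM or lower; inactive = the rest.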

Broadly, the EC50 is the concentration needed to bring the measured effect to its halfway point.

The target in this assay is CHO XBP1-luciferase reporter, UPR activation, luminescence. As to the kind of experiment: activators of UPR IRE1-XBP1 adaptive arm, SAR follow-up, cell-based, luciferase luminescence, set 2 (AID 588580).
On to `O=C(Nc1ccc(F)cc1)c1cc(-c2ccncc2)nc2ccccc12`, for which the EC50 result was “inactive”. Under `O=C(Nc1ccc(Br)c(C(F)(F)F)c1)c1cc(-c2ccncc2)nc2ccccc12` stands > 80 µM (inactive); under `Cc1cc(NC(=O)c2cc(-c3ccncc3)nc3ccccc23)ccc1Cl`, “inactive”. Turning to `Cc1ccc(NC(=O)c2cc(-c3ccncc3)nc3ccccc23)cc1`, the EC50 was 13.4 µM. The result for `COc1cccc(NC(=O)c2cc(-c3ccncc3)nc3ccccc23)c1` reads > 80 µM (inactive); that for `O=C(Nc1cccc(F)c1)c1cc(-c2ccncc2)nc2ccccc12`, “inactive”; that for `O=C(Nc1cccc(F)c1F)c1cc(-c2ccncc2)nc2ccccc12`, > 80 µM (inactive).

With `O=C(Nc1cccc(C(F)(F)F)c1)c1cc(-c2ccncc2)nc2ccccc12`, the EC50 is > 80 µM (inactive). The result for `O=C(Nc1cc(F)ccc1F)c1cc(-c2ccncc2)nc2ccccc12` reads > 80 µM (inactive).

On to `O=C(Nc1ccc(C(F)(F)F)cc1)c1cc(-c2ccncc2)nc2ccccc12`, for which the half-maximal effective concentration (EC50) was 2.2 µM. As to `Cc1cc(Br)cc(NC(=O)c2cc(-c3ccncc3)nc3ccccc23)c1`, the EC50 was > 80 µM (inactive). Regarding `Cc1cc(NC(=O)c2cc(-c3ccccc3)nc3ccccc23)ccc1Br`, the EC50 was > 80 µM (inactive). With `O=C(Nc1ccc(F)c(F)c1)c1cc(-c2ccncc2)nc2ccccc12`, the EC50 result is “inactive”. `O=C(Nc1ccc(Cl)cc1)c1cc(-c2ccncc2)nc2ccccc12`: the 50% effective concentration (EC50) is 8.42 µM. Turning to `O=C(Nc1cccc(F)c1Br)c1cc(-c2ccncc2)nc2ccccc12`, the EC50 is > 80 µM (inactive). Under `O=C(Nc1cccc(Br)c1)c1cc(-c2ccncc2)nc2ccccc12` stands > 80 µM (inactive). Under `O=C(Nc1cccc(Cl)c1)c1cc(-c2ccncc2)nc2ccccc12` stands > 80 µM (inactive); under `O=C(Nc1ccccc1Br)c1cc(-c2ccncc2)nc2ccccc12`, > 80 µM (inactive); under `Cc1cccc(NC(=O)c2cc(-c3ccncc3)nc3ccccc23)c1`, > 80 µM (inactive).

Take `Cc1cc(NC(=O)c2cc(-c3ccncc3)nc3ccccc23)ccc1F`: the EC50 is > 80 µM (inactive).
